According to patent publication US20220218679A1, “NOVEL COMPOUNDS AND PHARMACEUTICAL COMPOSITIONS THEREOF FOR THE TREATMENT OF INFLAMMATORY DISORDERS” (Galapagos NV, priority 2019, published 2022):
pIC50: −log10 of the molar value.

Columns and labels:
[1] = tested on: Human Hepatocyte; assay: Metabolic stability in hepatocytes (human); type: in vitro ADME; conditions: 1 μM test compound, cryopreserved human hepatocytes
Experimental: (§1) 4.6. Metabolic Stability in Hepatocytes
(§2) The aim of this assay is to determine the metabolic stability of the compound in hepatocytes (cryopreserved) of different species. Low hepatocyte stability may result in the formation of unwanted metabolites, high clearance, and therefore is not desirable.
(§3) The decrease in parent was assessed by measuring the percentage remaining by LC-MS/MS analysis.
(§4) A 10 mM stock solution of test compound in DMSO was first diluted in DMSO to 3 mM, and then in modified Krebs-Henseleit buffer (Sigma, K3753) to 5 μM. This compound dilution was added to a suspension of pooled cryopreserved hepatocytes (BioreclamationIVT) at 37° C. under gentle shaking.
(§5) Final reaction conditions were: 1 μM of test compound, 0.03% DMSO, 0.5 million viable hepatocytes/mL, and 75 μL incubation volume.
(§6) Testosterone (1 μM) and 7-hydroxycoumarin (1 μM) were used, respectively as phase I and phase II metabolic reaction controls.
(§7) After 0, 10, 20, 45, 90, 120 and 180 min of incubation, the reaction was terminated with 225 μL of MeCN:MeOH (2:1) containing 100 ng/mL of diclofenac as analytical internal standard. Samples were mixed, centrifuged and the supernatant analyzed by LC-MS/MS.
(§8) The instrument responses (ratios of test compound and internal standard peak areas) were referenced to the zero time point samples (considered as 100%) in order to determine the percentage of compound remaining.
(§9) Plots of percentage compound remaining were used to determine the intrinsic clearance in the hepatocyte incubations using the following equations:
(§10) Scaled Clint [L/h/kg]=Clint[μL/min/10^6 cells]*#(10^6) cells/g liver*60*( 1/10^6) Scaled Clint unbound [L/h/kg]=Clint [L/h/kg]/Fu,inc where: fu,inc equals hepatocyte binding, derived from microsomal binding (fu,mic) by following equation: […]

[2] = tested on: Mouse Hepatocyte; assay: Metabolic stability in hepatocytes (mouse); type: in vitro ADME; conditions: 1 μM test compound, cryopreserved mouse hepatocytes
Experimental: as §1, §2, §3, §4, §5, §6, §7, §8, §9, §10

[3] = tested on: CL097 triggered TNFα release in human whole blood; assay: Ex vivo human TNFα release inhibition (human whole blood assay); type: cell-based; conditions: Homo sapiens, CL097 2 μg/mL, 3 h 30 min at 37° C.
Source text: 4.10.1. Ex Vivo Human IFNα and TNFα Release Inhibition (Human Whole Blood Assay)
The aim of the assay is to evaluate the activity of compounds of the invention on the activated TLR/IRAK-4 pathway in an ex vivo human whole blood setting. Toll-like receptors (TLRs) are pattern recognition receptors that recognize a wide variety of microbial molecules, called pathogen-associated molecular patterns (PAMPs). Human TLR7 and TLR8 recognize imidazoquinoline compounds (e.g., CL097—CAS n #1026249-18-2) and single stranded RNAs as their natural ligands. Activation of TLRs leads to the production of several cytokines (e.g., IFNα, TNFα, IL-8, IL-6) by the TLR agonist-treated cells, whereas IRAK4 leads to the production of IFNα. Cytokine release is used as readout in this assay and represents a measure for the level of inhibition of the TLR/IRAK-4 pathway by the tested compound. It should be noted that in the context of the complete organism, other sources for these cytokines exist that are not dependent on the TLR/IRAK-4 pathway, such as e.g., macrophages (upon activation of the Fcγ receptor (Yan et al., 2012)) or T cells (upon activation of the T cell receptor (Brehm et al., 2005)).
4.10.1.1. Experimental Design
Blood was collected from healthy volunteers into lithium heparin tubes by venipuncture, then gently inverted several times to prevent clotting and incubated for at least 15 min at 37° C. on a rocking mixer shaker. Then, 100 μL of blood was dispensed into polypropylene 96-well microplate and pre-incubated in duplicate with 0.3% DMSO or test compound at different concentrations (from 30 to 0.01 μM, 3-fold dilutions to get 0.3% DMSO at the final) for 15 min at 37° C. After this pre-incubation, blood was triggered with CL097 (2 μg/mL from 1 mg/mL solution in water; InvivoGen, tlrl-c97) for 3 h 30 min at 37° C. Microtubes were centrifuged at 5000×g for 10 min at 4° C. and approximately 40 μL of plasma were collected into a polystyrene 96-well plate. Plasma could be analyzed freshly, within 30 min after triggering, or frozen at −80° C. Finally, the quantification of TNFα and IFNα were performed in the plasma using AlphaLISA Kit for TNFα and IFNα according to the manufacturer's instructions and read on the Ensight (PerkinElmer).
For each blood sample, the TNFα concentrations of the samples were determined from the fit. Data were then expressed a percentage of inhibition PIN for each replicate using the formula:
With mean TNFα with CL097=mean TNFα concentration of replicate samples triggered with CL097; TNFαsample1=TNFα concentration of sample 1; mean TNFα with vehicle=mean TNFα concentration of replicate samples treated with vehicle.
Curve fitting for pIC50 determination were generated using mean PIN±sem. Graphs and pIC50 calculations were derived using Prism 5.03 software (GraphPad).

COc1cn2nc(CCC(C)(C)O)cc2cc1NC(=O)c1cccn(C)c1=O [Compound 2, N-[2-(3-hydroxy-3-methylbutyl)-6-methoxypyrazolo[1,5-a]pyridin-5-yl]-1-methyl-2-oxopyridine-3-carboxamide]
Human Hepatocyte stability (Perc. remaining at 90 min) [1]: 100.45 Perc.
Mouse Hepatocyte stability (Perc. remaining at 90 min) [2]: 94.1 Perc.
pIC50 [3]: 6.30 to 10.00

CCOc1cn2nc(CCC(C)(C)O)cc2cc1NC(=O)c1cccn(C)c1=O [Compound 18, N-[6-ethoxy-2-(3-hydroxy-3-methyl-butyl)pyrazolo[1,5-a]pyridin-5-yl]-1-methyl-2-oxo-pyridine-3-carboxamide]
Human Hepatocyte stability (Perc. remaining at 90 min) [1]: 90.8 Perc.
Mouse Hepatocyte stability (Perc. remaining at 90 min) [2]: 93 Perc.
pIC50 [3]: 6.00 to 6.30

CCOc1cn2nc(CCC(C)(C)O)cc2cc1NC(=O)c1cccn(C2CC2)c1=O [Compound 17, 1-cyclopropyl-N-[6-ethoxy-2-(3-hydroxy-3-methyl-butyl)pyrazolo[1,5-a]pyridin-5-yl]-2-oxo-pyridine-3-carboxamide]
Human Hepatocyte stability (Perc. remaining at 90 min) [1]: 87.25 Perc.
Mouse Hepatocyte stability (Perc. remaining at 90 min) [2]: 93 Perc.
pIC50 [3]: 6.00 to 6.30

COc1cn2nc(CCC(C)(C)O)cc2cc1NC(=O)c1cccn(C2CC2)c1=O [Compound 1, 1-cyclopropyl-N-[2-(3-hydroxy-3-methylbutyl)-6-methoxypyrazolo[1,5-a]pyridin-5-yl]-2-oxopyridine-3-carboxamide]
Human Hepatocyte stability (Perc. remaining at 90 min) [1]: 96.6 Perc.
Mouse Hepatocyte stability (Perc. remaining at 90 min) [2]: 99.45 Perc.
pIC50 [3]: 6.30 to 10.00
